Publication PMC9598367, “Discovery and Preliminary Structure-Activity Investigation of 3-Substituted-1H-imidazol-5-yl-1H-indoles with In Vitro Activity towards Methicillin-Resistant Staphylococcus aureus” (Antibiotics, 2022)

First: CCCCCn1cncc1-c1c[nH]c2cccc(F)c12
Second: CCCCCn1cncc1-c1c[nH]c2cccc(Cl)c12
The melting point of the first is lower: 147 to 148 °C for the first, 188 to 189 °C for the second.

Compared with `CCCCCn1cncc1-c1c[nH]c2c(F)cccc12`, `Fc1cccc2c(-c3cncn3CCc3ccccc3)c[nH]c12` [Compound 52, 7-Fluoro-3-(1-phenethyl-1H-imidazol-5-yl)-1H-indole] is lower in melting point: 164 to 165 °C for the first, 45 to 46 °C for the second.

First: Fc1ccc2[nH]cc(-c3cncn3Cc3ccc(I)cc3)c2c1 [Compound 5, 5-Fluoro-3-(1-(4-iodobenzyl)-1H-imidazol-5-yl)-1H-indole]
Second: COc1ccc(Cn2cncc2-c2c[nH]c3ccc(F)cc23)cc1 [Compound 12, 5-Fluoro-3-(1-(4-methoxybenzyl)-1H-imidazol-5-yl)-1H-indole]
The melting point of the first is higher: 187 to 188 °C for the first, 181 to 182 °C for the second.

First: COc1ccc(Cn2cncc2-c2c[nH]c3cc(F)ccc23)cc1 [Compound 13, 6-Fluoro-3-(1-(4-methoxybenzyl)-1H-imidazol-5-yl)-1H-indole]
Second: COc1ccc(Cn2cncc2-c2c[nH]c3cc(Cl)ccc23)cc1 [Compound 15, 6-Chloro-3-(1-(4-methoxybenzyl)-1H-imidazol-5-yl)-1H-indole]
The melting point of the first is higher: 181 to 182 °C for the first, 178 to 179 °C for the second.

First: COc1ccc(Cn2cncc2-c2c[nH]c3ccc(Cl)cc23)cc1 [Compound 14, 5-Chloro-3-(1-(4-methoxybenzyl)-1H-imidazol-5-yl)-1H-indole]
Second: COc1ccc(Cn2cncc2-c2c[nH]c3ccc(Br)cc23)cc1 [Compound 16, 5-Bromo-3-(1-(4-methoxybenzyl)-1H-imidazol-5-yl)-1H-indole]
The melting point of the first is lower: 193 to 194 °C for the first, 197 to 198 °C for the second.

Compared with `Clc1ccc2c(-c3cncn3CCc3ccccc3)c[nH]c2c1` [Compound 20, 6-Chloro-3-(1-phenethyl-1H-imidazol-5-yl)-1H-indole], `Clc1ccc2[nH]cc(-c3cncn3Cc3ccccc3)c2c1` [Compound 46, 3-(1-Benzyl-1H-imidazol-5-yl)-5-chloro-1H-indole] is lower in melting point: 91 to 92 °C for the first, 78 to 79 °C for the second.

First: COc1ccc(CCn2cncc2-c2c[nH]c3ccc(F)cc23)cc1 [Compound 24, 5-Fluoro-3-(1-(4-methoxyphenethyl)-1H-imidazol-5-yl)-1H-indole]
Second: COc1ccc(CCn2cncc2-c2c[nH]c3cccc(F)c23)cc1 [Compound 66, 4-Fluoro-3-(1-(4-methoxyphenethyl)-1H-imidazol-5-yl)-1H-indole]
The melting point of the first is higher: 152 to 153 °C for the first, 56 to 57 °C for the second.

Compared with `COc1ccc(OC)c(CCn2cncc2-c2c[nH]c3ccc(F)cc23)c1` [Compound 30, 3-(1-(2,5-Dimethoxyphenethyl)-1H-imidazol-5-yl)-5-fluoro-1H-indole], `COc1ccc(OC)c(CCn2cncc2-c2c[nH]c3cc(F)ccc23)c1` [Compound 31, 3-(1-(2,5-Dimethoxyphenethyl)-1H-imidazol-5-yl)-6-fluoro-1H-indole] is lower in melting point: 150 to 151 °C for the first, 130 to 131 °C for the second.

First: COc1ccc(OC)c(CCn2cncc2-c2c[nH]c3cc(Cl)ccc23)c1 [Compound 33, 6-Chloro-3-(1-(2,5-dimethoxyphenethyl)-1H-imidazol-5-yl)-1H-indole]
Second: COc1ccc(OC)c(CCn2cncc2-c2c[nH]c3cc(Br)ccc23)c1 [Compound 35, 6-Bromo-3-(1-(2,5-dimethoxyphenethyl)-1H-imidazol-5-yl)-1H-indole]
The melting point of the first is lower: 80 to 81 °C for the first, 133 to 134 °C for the second.

First: c1ccc2c(-c3cncn3CCc3ccc4c(c3)OCO4)c[nH]c2c1 [Compound 36, 3-(1-(2-(Benzo[d][1,3]dioxol-5-yl)ethyl)-1H-imidazol-5-yl)-1H-indole]
Second: Fc1ccc2c(-c3cncn3CCc3ccc4c(c3)OCO4)c[nH]c2c1 [Compound 38, 3-(1-(2-(Benzo[d][1,3]dioxol-5-yl)ethyl)-1H-imidazol-5-yl)-6-fluoro-1H-indole]
The melting point of the first is higher: 195 to 196 °C for the first, 188 to 189 °C for the second.

First: Clc1ccc2c(-c3cncn3CCc3ccc4c(c3)OCO4)c[nH]c2c1 [Compound 40, 3-(1-(2-(Benzo[d][1,3]dioxol-5-yl)ethyl)-1H-imidazol-5-yl)-6-chloro-1H-indole]
Second: Brc1ccc2[nH]cc(-c3cncn3CCc3ccc4c(c3)OCO4)c2c1 [Compound 41, 3-(1-(2-(Benzo[d][1,3]dioxol-5-yl)ethyl)-1H-imidazol-5-yl)-5-bromo-1H-indole]
The melting point of the first is higher: 180 to 181 °C for the first, 176 to 177 °C for the second.

First: Fc1cccc2[nH]cc(-c3cncn3Cc3ccccc3)c12 [Compound 43, 3-(1-Benzyl-1H-imidazol-5-yl)-4-fluoro-1H-indole]
Second: Fc1cccc2[nH]cc(-c3cncn3CCc3ccccc3)c12 [Compound 51, 4-Fluoro-3-(1-phenethyl-1H-imidazol-5-yl)-1H-indole]
The melting point of the first is lower: 177 to 178 °C for the first, 181 to 182 °C for the second.

`Fc1cccc2c(-c3cncn3Cc3ccccc3)c[nH]c12` [Compound 44, 3-(1-Benzyl-1H-imidazol-5-yl)-7-fluoro-1H-indole] and `Clc1cccc2c(-c3cncn3Cc3ccccc3)c[nH]c12` [Compound 47, 3-(1-Benzyl-1H-imidazol-5-yl)-7-chloro-1H-indole] fall in the same range of melting point: 179 to 180 °C for the first, 179 to 180 °C for the second.

First: Clc1cccc2[nH]cc(-c3cncn3Cc3ccccc3)c12 [Compound 45, 3-(1-Benzyl-1H-imidazol-5-yl)-4-chloro-1H-indole]
Second: Clc1cccc2[nH]cc(-c3cncn3CCc3ccccc3)c12 [Compound 53, 4-Chloro-3-(1-phenethyl-1H-imidazol-5-yl)-1H-indole]
The melting point of the first is higher: 198 to 199 °C for the first, 73 to 74 °C for the second.

Compared with `Brc1cccc2[nH]cc(-c3cncn3Cc3ccccc3)c12` [Compound 48, 3-(1-Benzyl-1H-imidazol-5-yl)-4-bromo-1H-indole], `Brc1cccc2[nH]cc(-c3cncn3CCc3ccccc3)c12` [Compound 55, 4-Bromo-3-(1-phenethyl-1H-imidazol-5-yl)-1H-indole] is higher in melting point: 201 to 202 °C for the first, 204 to 205 °C for the second.

First: COc1ccc2[nH]cc(-c3cncn3Cc3ccccc3)c2c1 [Compound 49, 3-(1-Benzyl-1H-imidazol-5-yl)-5-methoxy-1H-indole]
Second: COc1ccc2c(-c3cncn3Cc3ccccc3)c[nH]c2c1 [Compound 50, 3-(1-Benzyl-1H-imidazol-5-yl)-6-methoxy-1H-indole]
The melting point of the first is lower: 65 to 66 °C for the first, 66 to 67 °C for the second.

Compared with `Clc1cccc2c(-c3cncn3CCc3ccccc3)c[nH]c12` [Compound 54, 7-Chloro-3-(1-phenethyl-1H-imidazol-5-yl)-1H-indole], `COc1ccc(CCn2cncc2-c2c[nH]c3c(Cl)cccc23)cc1` [Compound 69, 7-Chloro-3-(1-(4-methoxyphenethyl)-1H-imidazol-5-yl)-1H-indole] is higher in melting point: 47 to 48 °C for the first, 59 to 60 °C for the second.

First: COc1ccc2[nH]cc(-c3cncn3CCc3ccccc3)c2c1 [Compound 56, 5-Methoxy-3-(1-phenethyl-1H-imidazol-5-yl)-1H-indole]
Second: COc1ccc(Cn2cncc2-c2c[nH]c3ccc(OC)cc23)cc1 [Compound 64, 5-Methoxy-3-(1-(4-methoxybenzyl)-1H-imidazol-5-yl)-1H-indole]
The melting point of the first is lower: 51 to 52 °C for the first, 67 to 68 °C for the second.

First: COc1ccc(Cn2cncc2-c2c[nH]c3cccc(F)c23)cc1 [Compound 59, 4-Fluoro-3-(1-(4-methoxybenzyl)-1H-imidazol-5-yl)-1H-indole]
Second: COc1ccc(Cn2cncc2-c2c[nH]c3cccc(Cl)c23)cc1 [Compound 61, 4-Chloro-3-(1-(4-methoxybenzyl)-1H-imidazol-5-yl)-1H-indole]
The melting point of the first is lower: 66 to 67 °C for the first, 74 to 75 °C for the second.

First: COc1ccc(Cn2cncc2-c2c[nH]c3c(F)cccc23)cc1 [Compound 60, 7-Fluoro-3-(1-(4-methoxybenzyl)-1H-imidazol-5-yl)-1H-indole]
Second: COc1ccc(CCn2cncc2-c2c[nH]c3c(F)cccc23)cc1 [Compound 67, 7-Fluoro-3-(1-(4-methoxyphenethyl)-1H-imidazol-5-yl)-1H-indole]
The melting point of the first is higher: 179 to 180 °C for the first, 175 to 176 °C for the second.

Compared with `COc1ccc(Cn2cncc2-c2c[nH]c3c(Cl)cccc23)cc1` [Compound 62, 7-Chloro-3-(1-(4-methoxybenzyl)-1H-imidazol-5-yl)-1H-indole], `COc1ccc(Cn2cncc2-c2c[nH]c3cccc(Br)c23)cc1` [Compound 63, 4-Bromo-3-(1-(4-methoxybenzyl)-1H-imidazol-5-yl)-1H-indole] is lower in melting point: 220 to 221 °C for the first, 92 to 93 °C for the second.

First: COc1ccc(Cn2cncc2-c2c[nH]c3cc(OC)ccc23)cc1 [Compound 65, 6-Methoxy-3-(1-(4-methoxybenzyl)-1H-imidazol-5-yl)-1H-indole]
Second: COc1ccc(CCn2cncc2-c2c[nH]c3cccc(Cl)c23)cc1 [Compound 68, 4-Chloro-3-(1-(4-methoxyphenethyl)-1H-imidazol-5-yl)-1H-indole]
The melting point of the first is lower: 65 to 66 °C for the first, 76 to 77 °C for the second.

In the case of `COc1ccc(CCn2cncc2-c2c[nH]c3cccc(Br)c23)cc1` [Compound 70, 4-Bromo-3-(1-(4-methoxyphenethyl)-1H-imidazol-5-yl)-1H-indole], the melting point was 83 to 84 °C.

In the case of `Ic1ccc(Cn2cncc2-c2c[nH]c3ccccc23)cc1` [Compound 4, 3-(1-(4-Iodobenzyl)-1H-imidazol-5-yl)-1H-indole], the melting point was over 200 °C.
For `Clc1ccc2[nH]cc(-c3cncn3Cc3ccc(I)cc3)c2c1` [Compound 7, 5-Chloro-3-(1-(4-iodobenzyl)-1H-imidazol-5-yl)-1H-indole], the melting point was over 200 °C.
`Clc1ccc2c(-c3cncn3Cc3ccc(I)cc3)c[nH]c2c1` [Compound 8, 6-Chloro-3-(1-(4-iodobenzyl)-1H-imidazol-5-yl)-1H-indole] showed a melting point of over 200 °C.
For `Brc1ccc2c(-c3cncn3Cc3ccc(I)cc3)c[nH]c2c1` [Compound 10, 6-Bromo-3-(1-(4-iodobenzyl)-1H-imidazol-5-yl)-1H-indole], the melting point was over 200 °C.
Molecule `Fc1ccc2[nH]cc(-c3cncn3CCc3ccc4c(c3)OCO4)c2c1` [Compound 37, 3-(1-(2-(Benzo[d][1,3]dioxol-5-yl)ethyl)-1H-imidazol-5-yl)-5-fluoro-1H-indole] has a melting point of over 200 °C.
Molecule `Clc1ccc2[nH]cc(-c3cncn3CCc3ccc4c(c3)OCO4)c2c1` [Compound 39, 3-(1-(2-(Benzo[d][1,3]dioxol-5-yl)ethyl)-1H-imidazol-5-yl)-5-chloro-1H-indole] has a melting point of over 200 °C.
